Consider 30 compounds from US9096594B2, “Kinase inhibitors and methods of use thereof” (priority 2012, dated 2015).

Where two headings read alike, the source gives them in different places. Where only a bound is given, the exact number is not on record here.

The target in one experiment is CK1δ (Homo sapiens (Human), UniProt P48730). Kind of experiment: biochemical.
The target in experiment [1] is T1, GSK3β (Homo sapiens (Human), UniProt P49841). Kind of experiment: biochemical.
Description: Human GSK3β as a GST fusion expressed in baculoviral system was purchased from BPS Bioscience (San Diego, Calif.). […] Reactions were incubated at room temperature for 60 minutes. 2.5 μL/well of ADP-Glo (Promega, V9103) was added with BioRAPTR, and incubated at room temperature for 40 minutes followed by addition of 5 μL/well of ADP-Glo detection reagent (Promega, V9103) with Combi nL (Thermo, Waltham, Mass.) and incubation at room temperature for 30 minutes. The plates were read on a ViewLux (PerkinElmer, Waltham, Mass.) for luminescence. Data were scaled using the positive and neutral controls and fitted for IC50 as described below.
100 mL/well compounds were pinned. […] Incubated at room temperature for 60 minutes. Added 20 μL/well of ADP-glo (Promega, V9103) with Combi, and incubated at room temperature for 40 minutes. Added 40 μL/well of ADP-glo (Promega, V9103) with Combi, incubated at room temperature for 30 minutes. Read on Envision for luminescence.
Experiment [2] addresses T1, GSK3β. Kind of experiment: biochemical. The source holds these as a separate data set.
Experiment [3] has as its target T1, GSK3β. The experiment in a line: biochemical. This is another data set of the same source.
Experiment [4] concerns the target T2, GSK3α (Homo sapiens (Human), UniProt P49840). The experiment in a line: biochemical.
The next experiment concerns the target CDK5/p25 (Homo sapiens (Human), UniProt Q00535).
Experiment [5] has as its target T1, GSK3β.
Experiment [6] deals with T2, GSK3α.

T1 sequence (P49841 whole entry): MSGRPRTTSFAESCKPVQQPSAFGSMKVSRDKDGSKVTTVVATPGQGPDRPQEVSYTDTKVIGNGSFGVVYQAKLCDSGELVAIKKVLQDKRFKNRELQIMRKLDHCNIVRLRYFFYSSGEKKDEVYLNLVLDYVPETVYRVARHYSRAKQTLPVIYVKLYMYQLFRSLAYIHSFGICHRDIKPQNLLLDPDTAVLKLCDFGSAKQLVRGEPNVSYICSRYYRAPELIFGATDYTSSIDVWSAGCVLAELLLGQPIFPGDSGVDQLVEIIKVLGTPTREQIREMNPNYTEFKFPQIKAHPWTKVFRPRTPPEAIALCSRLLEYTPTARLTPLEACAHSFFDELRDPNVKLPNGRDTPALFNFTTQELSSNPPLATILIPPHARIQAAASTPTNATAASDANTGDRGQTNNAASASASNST
CK1δ, sequence (P48730 whole entry): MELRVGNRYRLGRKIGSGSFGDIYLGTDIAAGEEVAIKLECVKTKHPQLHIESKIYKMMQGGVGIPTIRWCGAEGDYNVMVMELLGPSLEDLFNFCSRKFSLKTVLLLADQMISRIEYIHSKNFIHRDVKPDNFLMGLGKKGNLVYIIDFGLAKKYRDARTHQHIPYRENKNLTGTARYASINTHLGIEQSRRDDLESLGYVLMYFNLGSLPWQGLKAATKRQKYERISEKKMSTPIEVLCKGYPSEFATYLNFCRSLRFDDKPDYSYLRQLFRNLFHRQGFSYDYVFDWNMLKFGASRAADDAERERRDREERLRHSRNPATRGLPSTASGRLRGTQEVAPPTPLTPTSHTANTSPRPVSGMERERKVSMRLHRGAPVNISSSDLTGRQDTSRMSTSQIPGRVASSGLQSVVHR
T2 sequence (P49840 whole entry): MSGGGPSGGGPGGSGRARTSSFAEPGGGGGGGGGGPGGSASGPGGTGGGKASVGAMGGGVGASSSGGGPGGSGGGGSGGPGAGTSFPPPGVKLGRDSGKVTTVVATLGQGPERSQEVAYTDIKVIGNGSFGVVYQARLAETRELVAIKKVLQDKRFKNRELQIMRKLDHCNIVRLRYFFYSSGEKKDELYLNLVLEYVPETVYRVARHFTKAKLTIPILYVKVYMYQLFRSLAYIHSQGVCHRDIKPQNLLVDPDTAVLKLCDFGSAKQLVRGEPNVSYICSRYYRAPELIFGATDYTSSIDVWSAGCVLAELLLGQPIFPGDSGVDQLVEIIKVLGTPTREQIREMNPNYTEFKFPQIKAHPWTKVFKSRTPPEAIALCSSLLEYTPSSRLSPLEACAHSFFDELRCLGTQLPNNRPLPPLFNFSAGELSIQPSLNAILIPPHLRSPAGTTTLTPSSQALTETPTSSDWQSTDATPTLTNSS
CDK5/p25, sequence (Q00535 whole entry, species assumed): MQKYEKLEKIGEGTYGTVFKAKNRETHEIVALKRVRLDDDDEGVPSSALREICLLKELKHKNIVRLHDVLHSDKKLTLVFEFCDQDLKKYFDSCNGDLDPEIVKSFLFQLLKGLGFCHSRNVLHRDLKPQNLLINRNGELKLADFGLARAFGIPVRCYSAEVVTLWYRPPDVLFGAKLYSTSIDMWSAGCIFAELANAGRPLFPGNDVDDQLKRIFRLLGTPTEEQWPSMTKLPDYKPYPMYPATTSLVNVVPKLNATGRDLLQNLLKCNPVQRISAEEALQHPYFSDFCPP
CDK5/p25, sequence (Q15078 99-307 partner, species assumed): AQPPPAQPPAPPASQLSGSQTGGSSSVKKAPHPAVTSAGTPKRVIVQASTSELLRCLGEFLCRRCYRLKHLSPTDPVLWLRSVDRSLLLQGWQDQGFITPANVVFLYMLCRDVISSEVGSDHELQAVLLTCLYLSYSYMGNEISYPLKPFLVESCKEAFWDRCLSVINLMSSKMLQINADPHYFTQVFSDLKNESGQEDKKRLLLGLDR
Description for CDK5/p25: Biochemical characterization of these synthesized compounds were assayed against GSK3β and CDK5/p25, with CDK5/p25 serving as a counter target of GSK3β selectivity. […] The effects of these compounds on survival of SH-SY5Y pathophysiology cells were also monitored.
Excerpt for CK1δ: Approximately 20,000 Response Units (RU) of anti GST-antibody (GE Healthcare Life Sciences) were immobilized on Flow Cell (FC) 1 and FC2 of a new, freshly conditioned CM5 Sensor Chip (GE Healthcare Life Sciences) in a Biacore T100 instrument utilizing the immobilization wizard of the T100 software package. Approximately 1,500 RU of recombinant GST (GE Healthcare Life Sciences) was then captured on FC1 utilizing the capture wizard protocol of the T100 software package. FC1 is used as a reference subtraction point for this and all SPR assays. Approximately 2,700 RU of recombinant GST-CK1δ was then captured on FC2 utilizing the capture wizard protocol of the T100 software package. FC2 is used as the active flowcell for this and all SPR assays. The analyte plate is generated in dose response fashion in TBS buffer containing a final concentration of 2% DMSO, with a final analyte concentration of 10 μM, 100 nM and 10 nM. A zero value is determined by running injections of buffer containing only 2% DMSO and no analyte. All injections are run in duplicate and are reference subtracted from FC1. A method consisting of a 60 second contact time and 60 second wash time with a flow rate of 30 μL/min was employed. […] Analysis of compounds was done using the 1:1 binding model and affinity measurements in the Biacore T100 evaluation software package.
Conditioning new chip: PBS immobilization buffer was loaded into buffer shelf and insert buffer line A. Unused CM5 sensor chip was loaded into instrument per user manual. Chip was primed with 6 minutes of buffer injection at 30 μL/min.
Primed chip again as described above. Generated anti GST antibody solution by mixing 4.5 μL anti GST antibody (GE Healthcare Life Sciences, GST Capture Kit) with 95.5 μL immobilization buffer (GE Healthcare Life Sciences, GST Capture Kit). Put solution into 700 μL small vial and cap. Repeated. Placed both vials in reagent rack 1 of Biacore T100 instrument and insert into machine per user manual. Initiated immobilization of anti GST antibody by utilizing the immobilization Wizard protocol of Biacore T100 software. Immobilized approximately 20,000 Response Units (RU) of anti GST antibody on FC1 and FC2. […] Inserted buffer line A. Repeated prime procedure. Generated GST protein solution by mixing 2 μL of recombinant GST (GE Healthcare Life Sciences, GST Capture Kit) with 98 μL TBS 2% DMSO buffer. Generated GST-CK1δ protein solution by mixing 5 μL of recombinant GST-CK1δ with 95 μL TBS 2% DMSO running buffer. Placed GST protein solution in position B1 on reagent rack 1. Placed GST-CK1δ protein solution in position Cl on reagent rack 1. Initiated a manual injection run and inject for 30 seconds at 5 μL/min GST protein solution on FC1 to generate reference flow cell. […] Captured approximately 1500 RU GST protein on FC1. Captured approximately 2700 RU GST-CK1δ protein on FC2.
An analyte plate was generated for the assay. Using a standard deep volume 384 well plate, placed 100 μL of a 10 μM analyte in TBS 2% DMSO solution wells A1 and A2. Placed 100 μL of a 50 nM analyte in TBS 2% DMSO solution in wells A3 and A4. Placed 100 μL of a 10 nM analyte in TBS 2% DMSO solution in wells A5 and A6. Placed 100 μL of TBS 2% DMSO running buffer in wells A7 and A8. Repeated steps for subsequent analytes. Placed analyte plate in Biacore T100 per user manual.

A word on the Kd: it is the constant that tells how readily two partners part at equilibrium. Broadly, the IC50 is the concentration at which inhibition is half-maximal. For `Cc1[nH]nc2c1C(c1cccs1)C1=C(CC(C)(C)CC1=O)N2` (racemic) [Compound 5, 3,7,7-trimethyl-4-(thiophen-2-yl)-6,7,8,9-tetrahydro-1H-pyrazolo[3,4-b]quinolin-5(4H)-one], the dissociation constant Kd at CK1δ and at GSK3β [2] was 101 to 1000 nM throughout. For the same compound, the IC50 at GSK3β [1], against GSK3β [3] and against GSK3α [4] was 101 to 1000 nM throughout.

Consider `Cc1[nH]nc2c1[C@H](c1ccccc1C(F)(F)F)C1=C(CC(C)(C)CC1=O)N2` (racemic) [Compound 28, 3,7,7-trimethyl-4-(2-(trifluoromethyl)phenyl)-6,7,8,9-tetrahydro-2H-pyrazolo[3,4-b]quinolin-5(4H)-one], for which the concentration for half-maximal inhibition (IC50) on GSK3β [1], on GSK3β [5] and against GSK3α [6] was less than 100 nM in each case. Moreover, the “ADP Glo Assay GSK3β vs CDK5 fold selectivity” value at CDK5/p25 was found to be 12X.

On to `CC1(C)CC(=O)C2=C(C1)Nc1n[nH]c(C(F)(F)F)c1C2(C)c1ccccc1` (racemic) [Compound 68, 4,7,7-trimethyl-4-phenyl-3-(trifluoromethyl)-6,7,8,9-tetrahydro-2H-pyrazolo[3,4-b]quinolin-5(4H)-one], for which the IC50 at GSK3β [1], against GSK3β [5] and on GSK3α [6] was less than 100 nM in each case. Also, the “ADP Glo Assay GSK3β vs CDK5 fold selectivity” value at CDK5/p25 came out at 244X.

Regarding `CC1(C)CC(=O)C2=C(C1)Nc1n[nH]c(C(F)(F)F)c1[C@@H]2c1ccccc1C(F)(F)F` (racemic) [Compound 72, 7,7-dimethyl-3-(trifluoromethyl)-4-(2-(trifluoromethyl)phenyl)-6,7,8,9-tetrahydro-2H-pyrazolo[3,4-b]quinolin-5(4H)-one], the IC50 against GSK3β [3] and against GSK3α [6] was less than 100 nM each time.

`Cc1[nH]nc2c1[C@H](c1ccccc1Br)C1=C(CC(C)(C)CC1=O)N2` (racemic) [Compound 80, 4-(2-bromophenyl)-3,7,7-trimethyl-6,7,8,9-tetrahydro-2H-pyrazolo[3,4-b]quinolin-5(4H)-one]: the concentration for half-maximal inhibition (IC50) on GSK3β [3] and at GSK3α [6] was less than 100 nM each time.

As to `Cc1[nH]nc2c1C(c1ccsc1)C1=C(CC(C)(C)CC1=O)N2` (centres unmarked) [Compound 8, 3,7,7-trimethyl-4-(thiophen-3-yl)-6,7,8,9-tetrahydro-1H-pyrazolo[3,4-b]quinolin-5(4H)-one], the Kd on CK1δ and at GSK3β [2] was 101 to 1000 nM in each case. Besides, the IC50 is 1000 to 5000 nM against GSK3β [1], 101 to 1000 nM on GSK3β [3] and 101 to 1000 nM at GSK3α [4].

For the compound `Cc1[nH]nc2c1C(c1ccc(Cl)s1)C1=C(CC(C)(C)CC1=O)N2` (centres unmarked) [Compound 9, 4-(5-chlorothiophen-2-yl)-3,7,7-trimethyl-6,7,8,9-tetrahydro-1H-pyrazolo[3,4-b]quinolin-5(4H)-one], the results for the dissociation constant Kd on CK1δ and on GSK3β [2] were 1000 to 5000 nM and 101 to 1000 nM, respectively. Also, the results for the 50% inhibitory concentration (IC50) on GSK3β [1], against GSK3β [3] and on GSK3α [4] were 1000 to 5000 nM, 101 to 1000 nM and 101 to 1000 nM, respectively.

Regarding `Cc1[nH]nc2c1C(c1ccccc1Cl)C1=C(CC(C)(C)CC1=O)N2` (centres unmarked) [Compound 13, 4-(2-chlorophenyl)-3,7,7-trimethyl-6,7,8,9-tetrahydro-2H-pyrazolo[3,4-b]quinolin-5(4H)-one], the IC50 was 101 to 1000 nM against GSK3β [1], less than 100 nM against GSK3β [5] and less than 100 nM on GSK3α [6]. The “ADP Glo Assay GSK3β vs CDK5 fold selectivity” value at CDK5/p25 was found to be 6X.

Regarding `Cc1[nH]nc2c1C(c1ccc(Cl)cc1)C1=C(CC(C)(C)CC1=O)N2` (centres unmarked) [Compound 15, 4-(4-chlorophenyl)-3,7,7-trimethyl-6,7,8,9-tetrahydro-1H-pyrazolo[3,4-b]quinolin-5(4H)-one], the Kd on CK1δ and at GSK3β [2] was 1000 to 5000 nM in each case. For the same compound, the IC50 on GSK3β [1] lay within 1000 to 5000 nM; against GSK3β [3], 1000 to 5000 nM; against GSK3α [4] it was 101 to 1000 nM.

In the case of `Cc1[nH]nc2c1C(c1ccccc1Br)C1=C(CC(C)(C)CC1=O)N2` (centres unmarked) [Compound 16], the “ADP Glo Assay GSK3β vs CDK5 fold selectivity” value at CDK5/p25 is listed as 14X. Further, the IC50 against GSK3β [5] and against GSK3α [6] was less than 100 nM throughout.

For the compound `COc1cccc(C2C3=C(CC(C)(C)CC3=O)Nc3n[nH]c(C)c32)c1` (centres unmarked) [Compound 23, 4-(3-methoxyphenyl)-3,7,7-trimethyl-6,7,8,9-tetrahydro-1H-pyrazolo[3,4-b]quinolin-5(4H)-one], the Kd at CK1δ lay within 1000 to 5000 nM; on GSK3β [2], 5000 to 30000 nM. The 50% inhibitory concentration (IC50) against GSK3β [1], at GSK3β [3] and against GSK3α [4] was 101 to 1000 nM throughout.

On to `COc1ccc(C2C3=C(CC(C)(C)CC3=O)Nc3n[nH]c(C)c32)cc1` (centres unmarked) [Compound 24, 4-(4-methoxyphenyl)-3,7,7-trimethyl-6,7,8,9-tetrahydro-1H-pyrazolo[3,4-b]quinolin-5(4H)-one], for which the Kd at CK1δ and at GSK3β [2] was 1000 to 5000 nM in each case. Moreover, the half-inhibitory concentration (IC50) was 5000 to 30000 nM at GSK3β [1], 1000 to 5000 nM against GSK3β [3] and 5000 to 30000 nM on GSK3α [4].

Turning to `CSc1ccccc1C1C2=C(CC(C)(C)CC2=O)Nc2n[nH]c(C)c21` (centres unmarked) [Compound 25, 3,7,7-trimethyl-4-(2-(methylthio)phenyl)-6,7,8,9-tetrahydro-2H-pyrazolo[3,4-b]quinolin-5(4H)-one], the IC50 on GSK3β [1], at GSK3β [5] and on GSK3α [6] was less than 100 nM throughout. At CDK5/p25, the “ADP Glo Assay GSK3β vs CDK5 fold selectivity” value was 124X.

Take `Cc1[nH]nc2c1C(c1ccc3c(c1)OCO3)C1=C(CC(C)(C)CC1=O)N2` (centres unmarked) [Compound 26, 4-(benzo[d][1,3]dioxol-5-yl)-3,7,7-trimethyl-6,7,8,9-tetrahydro-1H-pyrazolo[3,4-b]quinolin-5(4H)-one]: the dissociation constant Kd on CK1δ lay in the range of 101 to 1000 nM; at GSK3β [2], 1000 to 5000 nM. Moreover, the IC50 at GSK3β [1] fell in the range of 1000 to 5000 nM; against GSK3β [3], 1000 to 5000 nM; against GSK3α [4], 101 to 1000 nM.

`Cc1[nH]nc2c1[C@@H](c1ccccc1C#N)C1=C(CC(C)(C)CC1=O)N2` [Compound 32, 2-(3,7,7-trimethyl-5-oxo-4,5,6,7,8,9-hexahydro-2H-pyrazolo[3,4-b]quinolin-4-yl)benzonitrile]: the values for the half-maximal inhibitory concentration (IC50) against GSK3β [1], at GSK3β [5] and on GSK3α [6] were 101 to 1000 nM, less than 100 nM and less than 100 nM, respectively. Also, the “ADP Glo Assay GSK3β vs CDK5 fold selectivity” value on CDK5/p25 is given as 30X.

Regarding `Cc1[nH]nc2c1C(c1cccc(C#N)c1)C1=C(CC(C)(C)CC1=O)N2` (centres unmarked) [Compound 33, 3-(3,7,7-trimethyl-5-oxo-4,5,6,7,8,9-hexahydro-2H-pyrazolo[3,4-b]quinolin-4-yl)benzonitrile], the IC50 on GSK3β [1], on GSK3β [5] and against GSK3α [6] was less than 100 nM throughout. The “ADP Glo Assay GSK3β vs CDK5 fold selectivity” value at CDK5/p25 worked out at 131X.

As for `Cc1[nH]nc2c1C(c1ccccn1)C1=C(CC(C)(C)CC1=O)N2` (centres unmarked) [Compound 36, 3,7,7-trimethyl-4-(pyridin-2-yl)-6,7,8,9-tetrahydro-1H-pyrazolo[3,4-b]quinolin-5(4H)-one], the Kd on CK1δ lay within 5000 to 30000 nM; at GSK3β [2], 101 to 1000 nM. For the same compound, the figures for the IC50 against GSK3β [1], at GSK3β [3] and against GSK3α [4] were 101 to 1000 nM, 101 to 1000 nM and 1000 to 5000 nM, respectively.

With `Cc1[nH]nc2c1C(c1cccnc1)C1=C(CC(C)(C)CC1=O)N2` (centres unmarked) [Compound 37, 3,7,7-trimethyl-4-(pyridin-3-yl)-6,7,8,9-tetrahydro-1H-pyrazolo[3,4-b]quinolin-5(4H)-one], the results for the Kd at CK1δ and at GSK3β [2] were 1000 to 5000 nM and 101 to 1000 nM, respectively. Further, the IC50 at GSK3β [1], at GSK3β [3] and against GSK3α [4] was 101 to 1000 nM throughout.

As to `Cc1[nH]nc2c1C(c1cccc3nonc13)C1=C(CC(C)(C)CC1=O)N2` (centres unmarked) [Compound 41], the “ADP Glo Assay GSK3β vs CDK5 fold selectivity” value on CDK5/p25 was 51X. Also, the IC50 at GSK3β [5] is less than 100 nM.

Regarding `CCc1[nH]nc2c1C(c1ccccc1OC)C1=C(CC(C)(C)CC1=O)N2` (centres unmarked) [Compound 48], the “ADP Glo Assay GSK3β vs CDK5 fold selectivity” value on CDK5/p25 is recorded as 35X. This compound also came in with an IC50 on GSK3β [5] of less than 100 nM.

Turning to `COc1ccccc1C1C2=C(CC(C)(C)CC2=O)Nc2n[nH]c(C(C)C)c21` (centres unmarked) [Compound 49], at CDK5/p25, the “ADP Glo Assay GSK3β vs CDK5 fold selectivity” value was found to be 14X. On GSK3β [5], this compound showed a half-inhibitory concentration (IC50) of less than 100 nM.

Turning to `CC1(C)CC(=O)C2=C(C1)Nc1n[nH]c(C(F)(F)F)c1C2c1ccccc1` (centres unmarked) [Compound 52], the “ADP Glo Assay GSK3β vs CDK5 fold selectivity” value on CDK5/p25 is given as 615X. On GSK3β [5], this compound displayed an IC50 of less than 100 nM.

Turning to `CC1(C)CC(=O)C2=C(C1)Nc1n[nH]c(C(F)(F)F)c1C2c1ccccc1F` (centres unmarked) [Compound 58], the half-inhibitory concentration (IC50) against GSK3β [5] is less than 100 nM.

As for `CC1(C)CC(=O)C2=C(C1)Nc1n[nH]c(C(F)(F)F)c1C2c1cccc(F)c1C(F)(F)F` (centres unmarked) [Compound 63], at CDK5/p25, the “ADP Glo Assay GSK3β vs CDK5 fold selectivity” value stood at 276X. Moreover, the half-inhibitory concentration (IC50) at GSK3β [5] was less than 100 nM.

On to `CC1(C)CC(=O)C2=C(C1)Nc1n[nH]c(C(F)(F)F)c1C2c1cc(F)ccc1C(F)(F)F` (centres unmarked) [Compound 64], for which, at CDK5/p25, the “ADP Glo Assay GSK3β vs CDK5 fold selectivity” value is 162X. On GSK3β [5], this compound showed an IC50 of less than 100 nM.

In the case of `Cc1[nH]nc2c1C(C)(c1cccc(C(N)=O)c1)C1=C(CC(C)(C)CC1=O)N2` (centres unmarked) [Compound 90, 3-(3,4,7,7-tetramethyl-5-oxo-4,5,6,7,8,9-hexahydro-2H-pyrazolo[3,4-b]quinolin-4-yl)benzamide], the concentration for half-maximal inhibition (IC50) against GSK3β [3] and on GSK3α [6] was less than 100 nM each time.

With `COC(=O)c1[nH]nc2c1C(C)(c1ccccc1)C1=C(CC(C)(C)CC1=O)N2` (centres unmarked) [Compound 104], the IC50 against GSK3β [3] and against GSK3α [6] was less than 100 nM throughout.

Turning to `CC1(C)CC(=O)C2=C(C1)Nc1n[nH]c(C3CC3)c1C2(c1ccccc1)C(F)(F)F` (centres unmarked) [Compound 112], the half-inhibitory concentration (IC50) at GSK3β [3] and against GSK3α [6] was less than 100 nM in each case.

With `CC1(C)CC(=O)C2=C(C1)Nc1n[nH]c(C3CC3)c1C2(C)c1ccccc1F` (centres unmarked) [Compound 116], the half-maximal inhibitory concentration (IC50) against GSK3β [3] and against GSK3α [6] was less than 100 nM throughout.

Compound `Cc1[nH]nc2c1[C@](C)(c1ccccc1)C1=C(CC(C)(C)CC1=O)N2` [Compound 123] registered an IC50 against GSK3α [6] of less than 100 nM.
